Source: article PMC7000700, “RyR1-targeted drug discovery pipeline integrating FRET-based high-throughput screening and human myofiber dynamic Ca^2+ assays” (Scientific Reports, 2020)

Tests used:
RyR1 [1] = target: T1, RyR1 (Sus scrofa, UniProt P16960); assay: FLT-FRET between D-FKBP and A-CaM bound to RyR1 in skeletal SR membranes (HTS and dose-response); format: binding, porcine; set-up: RyR1 in skeletal SR membranes, and RyR2 in cardiac SR membranes; from tissue; host or cells: porcine longissimus dorsi muscle (heavy SR vesicles); conditions: for Hit in primary FLT-FRET HTS of LOPAC (FRET altered by > 4 SD vs DMSO): 10 μM compound, 2-hour incubation, 5 mM GSSG, 0.3 μM A-CaM, 1536-well; for Influence of GSSG vs GSH on the FRET dose-response effect: 5 mM GSSG vs 5 mM GSH; for Effect on FRET: biphasic dose-response, isoform not stated
Protocol: To confer compatibility with current HTS standards in industrial drug discovery facilities, we miniaturized our screening format from the previously established 384-well plates, requiring 50 μL sample per well[19], to 1536-well plates, requiring 5 μL sample per well. The complete 1280-compound library of pharmacologically active compounds (LOPAC) was applied as 5 nL/well in 40 columns of one 1536-well black-wall/black-bottom plate, with the remaining 8 columns loaded with 5 nL/well of DMSO, as no-drug controls. For each run of the screen, three plates were loaded with either (1) unlabeled HSR, or (2) HSR pre-incubated with donor-FKBP (D-FKBP; donor-only sample), or (3) donor-only sample that was additionally incubated with 0.3 μM acceptor-CaM (A-CaM) for 60 min prior to loading on the plate (donor-acceptor sample). This sub-saturating concentration of A-CaM was used to provide a readout that is sensitive to library compounds that may increase or decrease CaM binding affinity to RyR. To promote a homogenous population of RyR1 resembling that associated with myopathies, final assay conditions also included 30 nM Ca^2+ to represent resting (muscle relaxing) Ca^2+, and 5 mM oxidized glutathione (GSSG), which exaggerates the conditions associated with oxidative stress.
We acquired both FLT waveforms and fluorescence spectra, as previously described[19],[33],[34]. As previously observed, Hit effects were greatest following a 2-hour incubation with the library compounds (Supplementary Fig. 1a). As a result, all FRET results shown in Figs. 1 and 2, and Supplementary Fig. 2 are reported from the 2-hour incubation.
(§1) Necessary counter-screens to our pathological RyR1 conditions include evaluating compound effects in healthy conditions and on the cardiac isoform, RyR2. Using the same FRET assay as in HTS, we tested the dose response of key Hits from this screen and the previously HTS-identified RyR1 inhibitor, chloroxine, on healthy (5 mM GSH) and pathological (5 mM GSSG) conditions for both RyR1 in skeletal SR membranes, and RyR2 in cardiac SR membranes.
(§2) Skeletal HSR and cardiac CSR (0.4 mg/ml) membranes were independently pre-incubated with 60 nM D-FKBP, for 90 min, at 37 °C, in a solution containing 150 mM KCl, 5 mM GSH, 0.1 mg/mL BSA, 1 µg/mL Aprotinin/Leupeptin, 1 mM DTT and 20 mM PIPES (pH 7.0). To remove unbound D-FKBP, the SR membranes were spun down at 110,000 × g for 20 min, and then resuspended to 1 mg/mL (skeletal HSR) and 2 mg/mL (cardiac CSR) in binding buffer consisting of 150 mM KCl, 5 mM GSSG, 0.1 mg/mL BSA, 1μg/mL Aprotinin/Leupeptin and 20 mM PIPES, pH 7.0. These samples were then incubated with indicated [A-CaM] for 30 min at 22 °C in binding buffer containing 0.065 mM CaCl2 to give 30 nM free Ca^2+ in the presence of 1 mM EGTA (calculated by MaxChelator). This labeled SR sample was applied to the assay plates in 5 μL aliquots using a Multidrop™ Combi reagent dispenser (Thermo Scientific) with a standard-tube. An additional set of the assay plates were loaded with skeletal HSR or cardiac CSR labeled with only D-FKBP (no added A-CaM).
(§3) FLT measurements were conducted in a top-read FLT-PR designed and built by Fluorescence Innovations, Inc[33]. AF488 donor fluorescence was excited with a 473-nm microchip laser from Concepts Research Corporation (Belgium, WI), and emission was acquired with 490-nm long-pass and 517/20-nm band-pass filters (Semrock, Rochester, NY).
FLT waveforms for each well were fit based on a one-exponential decay function using least-squares minimization global-analysis software (Fluorescence Innovations, Inc.), as previously described[19],[33]. FRET efficiency (E) was determined as the fractional decrease of donor FLT (τD), due to the presence of acceptor fluorophore (τDA), using the following equation:1 E=1−τDA/τD, […]

RyR1 [2] = target: T1, RyR1; assay: F-FKBP binding to RyR1 by co-sedimentation with skeletal SR membranes; set-up: using co-sedimentation with pig skeletal and cardiac SR membranes; from tissue; host or cells: pig skeletal muscle (heavy SR membranes); species or system pig; conditions: RyR1, 10 μM Hit, 30 nM Ca2+, 5 mM GSSG or GSH
Protocol: (§4) The Hit-induced effect on FRET between D-FKBP and A-CaM most likely results from one or the combination of factors, including a shift in CaM and/or FKBP12.6 binding, and/or structure of the RyR complex that shifts the D-A distance. Under the same assay conditions as in the primary screen, we assessed the effect of 10 μM Hit on fluorescent FKBP12.6 (F-FKBP) binding to RyRs, using co-sedimentation with pig skeletal and cardiac SR membranes.
(§5) Supplementary Fig. 3 Effect of HTS Hits on F-FKBP binding to a) RyR1 in skeletal HSR membranes, and b) RyR2
(§6) in cardiac CSR membranes at 30 nM Ca2+ in the presence of 5 mM GSSG or GSH. Results are represented as individual
(§7) data points and means ± SEM, n = 4-5. *P < 0.05 by 2-sided Student’s unpaired t-test. […]

RyR2 [3] = target: T2, RyR2 (Sus scrofa, UniProt A0A5G2R1W3); assay: F-FKBP binding to RyR2 by co-sedimentation with cardiac SR membranes; set-up: using co-sedimentation with pig skeletal and cardiac SR membranes; from tissue; host or cells: pig cardiac muscle (crude SR membranes); species or system pig; conditions: RyR2, 10 μM Hit, 30 nM Ca2+, 5 mM GSSG or GSH
Protocol: as §4, §5, §6, §7

RyR1 [4] = target: T1, RyR1; assay: [3H]ryanodine binding to skeletal SR vesicles; format: biochemical, porcine; set-up: RyR1 in skeletal SR membranes, and RyR2 in cardiac SR membranes; from tissue; host or cells: porcine longissimus dorsi muscle (heavy SR vesicles); conditions: 0-20 μM compound, Supplementary Fig. 5
Protocol: To evaluate the functional impact of compounds identified through our FRET-based screen, we first used [^3H]ryanodine binding assays. The level of [^3H]ryanodine binding to RyRs in SR membranes is a well-established index of the RyR channel activity. Given the role of CaM binding in our FRET readout, we investigated whether CaM influences the functional effect of the Hit compounds by carrying out [^3H]ryanodine binding assays in the absence and presence of CaM (300 nM).
Crude sarcoplasmic reticulum (CSR) vesicles were isolated from porcine longissimus dorsi muscle and porcine cardiac left ventricle tissue by differential centrifugation of homogenized tissue. HSR vesicles, which are enriched in RyR1, were isolated by fractionation of crude skeletal SR vesicles using a discontinuous sucrose gradient. All vesicles were flash-frozen and stored at −80 °C. Immediately prior to the fluorescence or [^3H]ryanodine binding studies described below, the SR vesicles were stripped of residual endogenous CaM by incubation with a peptide derived from the CaM binding domain of myosin light chain kinase, followed by sedimentation.
In 96-well plates, HSR vesicles (1 mg/ml) and cardiac CSR vesicles (3 mg/mL) were pre-incubated with 0.02% DMSO or Hit compound, with or without 300 nM CaM, for 30 min at 22 °C in a solution containing 150 mM KCl, 5 mM GSSG, 1 µg/mL Aprotinin/Leupeptin, 1 mM EGTA, and 65 µM or 1.02 mM CaCl2 (as determined by MaxChelator to yield 30 nM or 30 μM of free Ca^2+, respectively), 0.1 mg/mL BSA and 20 mM K-PIPES (pH 7.0). Non-specific and maximal [^3H]ryanodine binding to SR were separately assessed by addition of 40 µM non-radioactively labeled ryanodine or 5 mM Adenylyl-imidodiphosphate, respectively. Such control samples were each distributed over 4 wells/plate. Binding of [^3H]ryanodine (10 and 15 nM for cardiac and skeletal SR, respectively) was determined after a 3-h incubation (37 °C) and filtration through grade GF/B Glass Microfiber filters (Brandel Inc., Gaithersburg, MD, US) using a Brandel Harvester. In 4 mL of Ecolite Scintillation cocktail (MP biomedicals, Solon, OH, USA), [^3H] on filter was counted using a Beckman LS6000 scintillation counter (Fullerton, CA).

RyR2 [5] = target: T2, RyR2; assay: FLT-FRET between D-FKBP and A-CaM bound to RyR2 in cardiac SR membranes (dose-response); format: binding, porcine; set-up: RyR1 in skeletal SR membranes, and RyR2 in cardiac SR membranes; from tissue; host or cells: porcine cardiac left ventricle (crude SR vesicles); conditions: RyR2, dose-response, 30 nM Ca2+
Protocol: as §1, §2, §3
FLT waveforms for each well were fit based on a one-exponential decay function using least-squares minimization global-analysis software (Fluorescence Innovations, Inc.), as previously described[19],[33]. FRET efficiency (E) was determined as the fractional decrease of donor FLT (τD), due to the presence of acceptor fluorophore (τDA), using the following equation:1 E=1−τDA/τD,

[6] = test system: RyR1 Ca^2+ leak in human skinned skeletal muscle fibers; assay: t-system Ca2+ readout of RyR1 Ca2+ leak in human mechanically skinned skeletal muscle fibers; conditions: 1 mM
[7] = isoform not given (figures show skeletal and cardiac SR)

T1 sequence (P16960 whole entry, canonical isoform): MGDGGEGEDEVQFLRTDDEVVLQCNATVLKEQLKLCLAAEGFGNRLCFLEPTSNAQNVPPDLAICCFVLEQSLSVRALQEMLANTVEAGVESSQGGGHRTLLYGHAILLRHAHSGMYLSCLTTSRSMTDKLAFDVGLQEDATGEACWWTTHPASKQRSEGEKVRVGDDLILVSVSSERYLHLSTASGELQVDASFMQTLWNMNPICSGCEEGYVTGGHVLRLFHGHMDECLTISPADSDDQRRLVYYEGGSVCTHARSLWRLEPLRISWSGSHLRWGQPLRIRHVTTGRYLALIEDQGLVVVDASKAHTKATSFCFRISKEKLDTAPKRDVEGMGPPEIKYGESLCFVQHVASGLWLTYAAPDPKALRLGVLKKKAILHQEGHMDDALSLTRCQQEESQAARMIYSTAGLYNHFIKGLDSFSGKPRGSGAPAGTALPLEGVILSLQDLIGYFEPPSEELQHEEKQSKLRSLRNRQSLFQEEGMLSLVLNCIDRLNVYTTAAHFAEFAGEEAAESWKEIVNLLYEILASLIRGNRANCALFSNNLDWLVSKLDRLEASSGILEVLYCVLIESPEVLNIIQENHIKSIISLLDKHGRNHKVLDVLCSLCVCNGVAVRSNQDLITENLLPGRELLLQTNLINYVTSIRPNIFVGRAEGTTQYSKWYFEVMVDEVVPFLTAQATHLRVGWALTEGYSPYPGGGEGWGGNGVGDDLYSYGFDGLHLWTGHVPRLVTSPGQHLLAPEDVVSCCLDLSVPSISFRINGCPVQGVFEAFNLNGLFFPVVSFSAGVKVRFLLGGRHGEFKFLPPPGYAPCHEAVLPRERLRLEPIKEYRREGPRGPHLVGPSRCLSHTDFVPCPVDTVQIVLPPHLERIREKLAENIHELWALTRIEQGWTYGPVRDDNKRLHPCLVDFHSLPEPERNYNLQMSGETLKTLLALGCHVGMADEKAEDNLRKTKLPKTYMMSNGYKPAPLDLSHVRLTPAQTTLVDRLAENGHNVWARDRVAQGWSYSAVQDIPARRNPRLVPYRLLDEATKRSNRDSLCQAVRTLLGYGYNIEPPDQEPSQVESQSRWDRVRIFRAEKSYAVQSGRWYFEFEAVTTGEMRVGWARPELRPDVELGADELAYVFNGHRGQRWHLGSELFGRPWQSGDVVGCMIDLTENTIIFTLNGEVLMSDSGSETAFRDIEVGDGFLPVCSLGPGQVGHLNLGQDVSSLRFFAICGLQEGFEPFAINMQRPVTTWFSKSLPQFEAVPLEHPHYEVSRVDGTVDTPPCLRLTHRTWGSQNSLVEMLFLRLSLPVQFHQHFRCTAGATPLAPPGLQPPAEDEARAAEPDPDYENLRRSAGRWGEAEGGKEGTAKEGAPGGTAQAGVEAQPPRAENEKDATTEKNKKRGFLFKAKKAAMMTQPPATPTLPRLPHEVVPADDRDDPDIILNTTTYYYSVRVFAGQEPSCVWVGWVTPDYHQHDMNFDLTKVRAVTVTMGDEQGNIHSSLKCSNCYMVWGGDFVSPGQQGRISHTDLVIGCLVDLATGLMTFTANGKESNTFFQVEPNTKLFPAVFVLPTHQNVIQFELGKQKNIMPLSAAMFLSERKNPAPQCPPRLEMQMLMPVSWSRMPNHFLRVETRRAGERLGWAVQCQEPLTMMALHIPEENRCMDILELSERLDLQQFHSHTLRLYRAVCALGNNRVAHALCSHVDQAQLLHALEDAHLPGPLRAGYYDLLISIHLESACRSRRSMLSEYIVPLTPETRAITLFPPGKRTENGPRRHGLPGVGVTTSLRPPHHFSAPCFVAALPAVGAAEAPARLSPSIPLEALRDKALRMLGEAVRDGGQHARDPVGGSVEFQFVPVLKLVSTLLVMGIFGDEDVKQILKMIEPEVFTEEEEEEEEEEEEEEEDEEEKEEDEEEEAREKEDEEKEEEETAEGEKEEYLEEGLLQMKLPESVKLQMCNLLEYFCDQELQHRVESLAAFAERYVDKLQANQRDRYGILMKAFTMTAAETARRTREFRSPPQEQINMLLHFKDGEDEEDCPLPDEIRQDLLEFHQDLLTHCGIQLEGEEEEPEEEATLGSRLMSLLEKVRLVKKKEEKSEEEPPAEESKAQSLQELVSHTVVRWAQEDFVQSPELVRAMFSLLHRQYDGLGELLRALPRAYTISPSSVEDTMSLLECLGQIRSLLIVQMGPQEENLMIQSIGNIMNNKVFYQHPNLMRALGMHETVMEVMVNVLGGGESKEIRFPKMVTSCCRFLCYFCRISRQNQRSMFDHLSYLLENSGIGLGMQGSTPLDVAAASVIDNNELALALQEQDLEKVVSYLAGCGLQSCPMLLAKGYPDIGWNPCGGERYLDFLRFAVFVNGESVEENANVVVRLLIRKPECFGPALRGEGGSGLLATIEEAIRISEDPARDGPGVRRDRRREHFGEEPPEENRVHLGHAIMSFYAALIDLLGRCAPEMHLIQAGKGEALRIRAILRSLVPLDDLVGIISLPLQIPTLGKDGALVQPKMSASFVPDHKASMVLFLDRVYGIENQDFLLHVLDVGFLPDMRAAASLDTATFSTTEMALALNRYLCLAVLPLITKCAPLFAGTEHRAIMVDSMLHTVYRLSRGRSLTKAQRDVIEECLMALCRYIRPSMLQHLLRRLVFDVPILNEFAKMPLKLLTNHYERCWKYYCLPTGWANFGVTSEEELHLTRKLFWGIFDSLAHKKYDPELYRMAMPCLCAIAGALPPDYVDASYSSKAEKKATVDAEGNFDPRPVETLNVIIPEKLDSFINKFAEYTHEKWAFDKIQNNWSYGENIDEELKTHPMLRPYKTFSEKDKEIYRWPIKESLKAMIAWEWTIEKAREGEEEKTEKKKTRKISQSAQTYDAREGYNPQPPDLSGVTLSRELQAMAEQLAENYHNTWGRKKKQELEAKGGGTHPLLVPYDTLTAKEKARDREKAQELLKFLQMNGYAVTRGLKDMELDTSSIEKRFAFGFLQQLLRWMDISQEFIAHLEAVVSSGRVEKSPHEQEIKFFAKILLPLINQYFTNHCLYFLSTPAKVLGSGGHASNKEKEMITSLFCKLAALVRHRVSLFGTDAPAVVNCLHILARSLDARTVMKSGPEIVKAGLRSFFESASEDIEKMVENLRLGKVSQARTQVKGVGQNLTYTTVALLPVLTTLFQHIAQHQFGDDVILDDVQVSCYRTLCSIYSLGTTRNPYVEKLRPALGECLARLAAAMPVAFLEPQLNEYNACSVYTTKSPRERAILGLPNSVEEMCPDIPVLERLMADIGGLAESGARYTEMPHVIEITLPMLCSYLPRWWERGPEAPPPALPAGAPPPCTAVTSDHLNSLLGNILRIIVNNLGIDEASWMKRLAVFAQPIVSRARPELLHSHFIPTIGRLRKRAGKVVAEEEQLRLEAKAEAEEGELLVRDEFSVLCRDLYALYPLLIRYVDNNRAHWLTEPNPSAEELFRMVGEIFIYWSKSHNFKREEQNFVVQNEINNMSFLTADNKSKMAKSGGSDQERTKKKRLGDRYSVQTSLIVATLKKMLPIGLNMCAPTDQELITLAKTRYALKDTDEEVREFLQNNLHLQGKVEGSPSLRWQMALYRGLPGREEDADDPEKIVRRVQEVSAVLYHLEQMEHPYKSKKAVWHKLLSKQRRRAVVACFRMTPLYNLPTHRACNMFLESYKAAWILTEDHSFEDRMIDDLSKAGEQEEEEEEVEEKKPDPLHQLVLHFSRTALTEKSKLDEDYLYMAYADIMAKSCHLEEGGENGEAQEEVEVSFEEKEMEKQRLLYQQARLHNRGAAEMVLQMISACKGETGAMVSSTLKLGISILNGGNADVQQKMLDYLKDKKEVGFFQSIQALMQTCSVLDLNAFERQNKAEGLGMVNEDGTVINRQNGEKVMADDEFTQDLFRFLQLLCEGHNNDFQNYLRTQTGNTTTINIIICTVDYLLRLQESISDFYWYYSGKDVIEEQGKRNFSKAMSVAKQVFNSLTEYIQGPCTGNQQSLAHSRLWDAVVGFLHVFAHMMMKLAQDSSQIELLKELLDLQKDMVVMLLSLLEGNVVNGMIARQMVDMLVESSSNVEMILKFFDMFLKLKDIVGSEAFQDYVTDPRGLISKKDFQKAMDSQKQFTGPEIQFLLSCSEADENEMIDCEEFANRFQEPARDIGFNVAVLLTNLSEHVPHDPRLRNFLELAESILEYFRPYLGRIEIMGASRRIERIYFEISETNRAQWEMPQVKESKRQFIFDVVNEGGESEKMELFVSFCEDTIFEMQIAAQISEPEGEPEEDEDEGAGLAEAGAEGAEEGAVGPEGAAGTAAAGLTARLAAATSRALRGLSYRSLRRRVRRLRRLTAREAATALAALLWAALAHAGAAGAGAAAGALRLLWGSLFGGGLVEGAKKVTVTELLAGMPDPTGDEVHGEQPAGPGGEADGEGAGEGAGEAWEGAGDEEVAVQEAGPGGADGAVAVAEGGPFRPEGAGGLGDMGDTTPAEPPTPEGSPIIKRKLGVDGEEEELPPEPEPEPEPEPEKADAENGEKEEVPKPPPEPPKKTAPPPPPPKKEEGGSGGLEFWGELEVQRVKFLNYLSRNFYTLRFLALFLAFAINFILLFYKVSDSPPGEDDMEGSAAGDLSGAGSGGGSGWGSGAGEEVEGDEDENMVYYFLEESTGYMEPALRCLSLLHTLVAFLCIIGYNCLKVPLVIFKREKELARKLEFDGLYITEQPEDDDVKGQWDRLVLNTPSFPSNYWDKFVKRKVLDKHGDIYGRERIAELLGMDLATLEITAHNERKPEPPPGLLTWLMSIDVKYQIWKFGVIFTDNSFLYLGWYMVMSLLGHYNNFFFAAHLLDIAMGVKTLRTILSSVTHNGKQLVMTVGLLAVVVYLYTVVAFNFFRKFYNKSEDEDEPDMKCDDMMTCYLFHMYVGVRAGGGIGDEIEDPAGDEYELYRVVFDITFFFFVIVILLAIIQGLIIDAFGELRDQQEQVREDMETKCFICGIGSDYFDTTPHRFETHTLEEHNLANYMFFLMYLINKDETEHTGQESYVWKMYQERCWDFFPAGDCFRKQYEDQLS

Hit in primary FLT-FRET HTS of LOPAC (FRET altered by > 4 SD vs DMSO) (RyR1 [1]; 30 nM Ca2+) | Molecule | Influence of GSSG vs GSH on the FRET dose-response effect (RyR1 [1]; [7]) | also measured
observe | CN=c1nc(-c2ccccc2)n(-c2ccccc2)s1 [SCH-202676] | more strongly decreased FRET in the presence of GSSG vs. GSH | –
identified | CO[C@H]1C[C@@H]2CC[C@@H](C)[C@@](O)(O2)C(=O)C(=O)N2CCCC[C@H]2C(=O)O[C@H]([C@H](C)C[C@@H]2CC[C@@H](OC(=O)C(C)(CO)CO)[C@H](OC)C2)CC(=O)[C@H](C)/C=C(\C)[C@@H](O)[C@@H](OC)C(=O)[C@H](C)C[C@H](C)/C=C/C=C/C=C/1C [temsirolimus] | – | Decrease of F-FKBP binding (RyR1 [2]): 20%; FRET reduction (RyR2 [5]): 68–70%; Decrease of F-FKBP binding (RyR2 [3]): 70%; FRET reduction (RyR1 [1]; RyR1, dose-response, 30 nM Ca2+): ~ 10%
identified | CCN(CC)C(=S)SSC(=S)N(CC)CC [disulfiram] | more strongly decreased FRET in the presence of GSSG vs. GSH | –

Second part, the molecule before the results:

Molecule | Hit in primary FLT-FRET HTS of LOPAC (FRET altered by > 4 SD vs DMSO) (RyR1 [1]; 30 nM Ca2+) | Influence of GSSG vs GSH on the FRET dose-response effect (RyR1 [1]; [7]) | also measured
N.N.[Cl][Pt][Cl] [cisplatin] | decrease in FRET | more strongly decreased FRET in the presence of GSSG vs. GSH | –
Reactive Blue | observe | – | –
C=CC[C@@H]1/C=C(\C)C[C@H](C)C[C@H](OC)[C@H]2O[C@@](O)(C(=O)C(=O)N3CCCC[C@H]3C(=O)O[C@H](/C(C)=C/[C@@H]3CC[C@@H](O)[C@H](OC)C3)[C@H](C)[C@@H](O)CC1=O)[C@H](C)C[C@@H]2OC [tacrolimus] | – | – | Decrease of F-FKBP binding (RyR1 [2]): 20%; Decrease of F-FKBP binding (RyR2 [3]): 70%
Nc1ccc(-c2nc3ccc(-c4nc5ccc(N)cc5[nH]4)cc3[nH]2)cc1 [Ro 90–7501] | – | very similar FRET dose-response effects with GSSG or GSH | Effect on FRET (RyR1 [1]; micromolar [compound]): decreased; Effect on FRET (RyR1 [1]; sub-micromolar [compound]): increased; Effect on [3H]ryanodine binding (RyR1 [4]): inhibited
O=C(O)C1=CC(=C(c2ccc(O)c(C(=O)O)c2)c2ccc(O)c(C(=O)O)c2)C=CC1=O [aurintricarboxylic acid] | observe | – | Compound concentration at which FRET is abolished (RyR1 [1]; FRET dose-response, isoform not given (figures show skeletal and cardiac SR)): ≥ 10 µM; Effect on [3H]ryanodine binding (RyR1 [4]): potent inhibitor
CCCCNc1ccc(C(=O)OCCN(C)C)cc1 [Tetracaine, tetracaine] | – | – | RyR inhibition (reference level of leak assay) [6]: full RyR inhibition
C[C@H](O)[C@H](O)[C@H]1CNc2nc(N)[nH]c(=O)c2N1 [(6 R)-BH4] | observe | – | –
O=C(Nc1cccc(C(=O)Nc2ccc(S(=O)(=O)O)c3cc(S(=O)(=O)O)cc(S(=O)(=O)O)c23)c1)Nc1cccc(C(=O)Nc2ccc(S(=O)(=O)O)c3cc(S(=O)(=O)O)cc(S(=O)(=O)O)c23)c1 [NF023] | identified | – | –
Oc1ccc2ccccc2c1SSc1c(O)ccc2ccccc12 [IPA-3] | – | more strongly decreased FRET in the presence of GSSG vs. GSH | –
